Source: US20140023611A1 (priority 2010, published 2014)

molecular target: T1, rat NaP2b (SLC34A2) (Rattus norvegicus, UniProt Q9JJ09); experiment: Inhibition of NaP2b-mediated Pi (33P) uptake in transfected HEK293 cells, rat NaP2b; format: cell-based; details: 33P Pi uptake, 0.1 mM phosphate, value given as pIC50 range
T1 construct: host or cells: HEK293
T1 sequence (Q9JJ09 1-695): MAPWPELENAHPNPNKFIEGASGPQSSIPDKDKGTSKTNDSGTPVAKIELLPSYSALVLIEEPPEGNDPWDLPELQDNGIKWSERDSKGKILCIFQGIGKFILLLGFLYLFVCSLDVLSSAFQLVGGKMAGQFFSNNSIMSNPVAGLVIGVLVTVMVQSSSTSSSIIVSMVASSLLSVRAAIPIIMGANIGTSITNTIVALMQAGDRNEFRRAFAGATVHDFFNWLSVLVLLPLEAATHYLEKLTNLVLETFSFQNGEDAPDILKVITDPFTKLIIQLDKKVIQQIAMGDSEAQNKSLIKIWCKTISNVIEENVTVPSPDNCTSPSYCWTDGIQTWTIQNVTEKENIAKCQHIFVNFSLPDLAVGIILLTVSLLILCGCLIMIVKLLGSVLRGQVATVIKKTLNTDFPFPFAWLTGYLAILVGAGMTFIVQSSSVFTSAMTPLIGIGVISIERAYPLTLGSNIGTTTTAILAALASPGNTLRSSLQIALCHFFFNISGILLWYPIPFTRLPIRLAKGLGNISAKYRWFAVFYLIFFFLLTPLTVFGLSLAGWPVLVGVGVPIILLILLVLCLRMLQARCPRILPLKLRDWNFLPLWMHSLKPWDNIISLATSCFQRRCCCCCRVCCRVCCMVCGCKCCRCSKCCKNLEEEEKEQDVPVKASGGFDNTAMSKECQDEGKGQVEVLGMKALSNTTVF
How it was run: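 HEK293 cells were transiently transfected with NaP2b cDNA using Lipofectamine and grown near confluence. Compounds were tested at twelve concentrations from 0.1 nM to 30 uM in duplicate, and 33P-phosphate uptake was counted by scintillation after lysis. Results are expressed as pIC50.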

SMILES	IC50 [µM]
CN(C)CCC#Cc1cccc(C(=O)Nc2ccc(Cl)cc2-c2cc(NCc3cccc(C(F)(F)F)c3)ncn2)c1 [Example 67, N-(4-Chloro-2-(6-(3-(trifluoromethyl)benzylamino)pyrimidin-4-yl)phenyl)-3-(4-(dimethylamino)but-1-ynyl)benzamide 2,2,2-trifluoroacetate]	10 to 31.6
CCN(CC)CCN(C)Cc1cccc(C(=O)Nc2ccc(Cl)cc2-c2cc(NCc3cccc(C(F)(F)F)c3)ncn2)c1 [Example 68, N-(4-Chloro-2-(6-((3-(trifluoromethyl)benzyl)amino)pyrimidin-4-yl)phenyl)-3-(((2-(diethylamino)ethyl)(methyl)amino)methyl)benzamide]	10 to 31.6
O=C(O)CCSCc1cccc(C(=O)Nc2ccc(N3CCCCC3)cc2-c2cc(NCc3cccc(C(F)(F)F)c3)ccn2)c1 [Example 69, 3-((3-((4-(Piperidin-1-yl)-2-(4-((3-(trifluoromethyl)benzyl)amino)pyridin-2-yl)phenyl)carbamoyl)benzyl)thio)propanoic acid]	10 to 31.6
O=C(O)CCSCc1cccc(C(=O)Nc2ccc(N3CCCCC3)cc2-c2cc(NCCc3cccc(C(F)(F)F)c3)ccn2)c1 [Example 70, 3-((3-((4-(Piperidin-1-yl)-2-(4-((3-(trifluoromethyl)phenethyl)amino)pyridin-2-yl)phenyl)carbamoyl)benzyl)thio)propanoic acid]	10 to 31.6
Cc1ccc(Nc2ccnc(-c3cc(N4CCCCC4)ccc3NC(=O)c3cccc(CSCCC(=O)O)c3)c2)cc1C [Example 71, 3-((3-((2-(4-((3,4-Dimethylphenyl)amino)pyridin-2-yl)-4-(piperidin-1-yl)phenyl)carbamoyl)benzyl)thio)propanoic acid]	10 to 31.6
O=C(O)CCSCc1cccc(C(=O)Nc2ccc(N3CCCCC3)cc2-c2cc(Nc3cccc(C(F)(F)F)c3)ccn2)c1 [Example 72, 3-((3-((4-(Piperidin-1-yl)-2-(4-((3-(trifluoromethyl)phenyl)amino)pyridin-2-yl)phenyl)carbamoyl)benzyl)thio)propanoic acid]	10 to 31.6
O=C(O)CCSCc1cccc(C(=O)Nc2ccc(N3CCCCC3)cc2-c2cc(NC(=O)c3cccc(C(F)(F)F)c3)ccn2)c1 [Example 73, 3-((3-((4-(Piperidin-1-yl)-2-(4-(3-(trifluoromethyl)benzamido)pyridin-2-yl)phenyl)carbamoyl)benzyl)thio)propanoic acid]	10 to 31.6
Cc1ccc(C(=O)Nc2ccnc(-c3cc(N4CCCCC4)ccc3NC(=O)c3cccc(CSCCC(=O)O)c3)c2)cc1C [Example 74, 3-((3-((2-(4-(3,4-Dimethylbenzamido)pyridin-2-yl)-4-(piperidin-1-yl)phenyl)carbamoyl)benzyl)thio)propanoic acid]	10 to 31.6
O=C(NCc1cccc(C(F)(F)F)c1)c1ccnc(-c2cc(N3CCCCC3)ccc2NC(=O)c2cccc(Cn3cc(CCO)nn3)c2)c1 [Example 75, 2-(2-(3-((4-(2-Hydroxyethyl)-1H-1,2,3-triazol-1-yl)methyl)benzamido)-5-(piperidin-1-yl)phenyl)-N-(3-(trifluoromethyl)benzyl)isonicotinamide]	10 to 31.6
CC(Nc1cc(-c2cc(N3CCCCC3)ccc2NC(=O)c2cccc(CSCCC(=O)O)c2)ncn1)c1cccc(C(F)(F)F)c1 (stereo not shown) [Example 76, 3-((3-((4-(Piperidin-1-yl)-2-(6-((1-(3-(trifluoromethyl)phenyl)ethyl)amino)pyrimidin-4-yl)phenyl)carbamoyl)benzyl)thio)propanoic acid]	10 to 31.6
O=C(O)CCSCc1cccc(C(=O)Nc2ccc(N3CCCCC3)cc2-c2cc(C(=O)NCc3ccc(N4CCOCC4)cc3)ccn2)c1 [Example 78, 3-(3-(2-(4-(4-Morpholinobenzylcarbamoyl)pyridin-2-yl)-4-(piperidin-1-yl)-phenylcarbamoyl)benzylthio) propanoic acid]	10 to 31.6
O=C(O)CCSCc1cccc(C(=O)Nc2ccc(N3CCCCC3)cc2-c2cc(C(=O)NCc3ccc(-n4cccn4)cc3)ccn2)c1 [Example 79, 3-(3-((2-(4-((4-(1H-Pyrazol-1-yl)benzyl)carbamoyl)pyridin-2-yl)-4-(piperidin-1-yl)phenyl)carbamoyl)benzylthio)propanoic acid]	10 to 31.6
O=C(O)CCSCc1cccc(C(=O)Nc2ccc(N3CCCCC3)cc2-c2cc(C(=O)NCc3cccc(C(F)(F)F)c3)ncn2)c1 [Example 87]	10 to 31.6
O=C(O)CCSCc1cccc(C(=O)Nc2ccc(N3CCCCC3)cc2-c2nccc(C(=O)NCc3cccc(C(F)(F)F)c3)c2F)c1 [Example 88]	10 to 31.6
O=C(O)CCSCc1cccc(C(=O)Nc2ccc(N3CCCCC3)cc2-c2cc(C(=O)NCc3cccc(C(F)(F)F)c3)c(Cl)cn2)c1 [Example 90]	10 to 31.6
O=C(NCc1cccc(C(F)(F)F)c1)c1ccnc(-c2cc(N3CCCCC3)ccc2NC(=O)c2cccc(CSCCCS(=O)(=O)O)c2)c1 [Example 91]	10 to 31.6
O=C(O)CCSCc1cccc(C(=O)Nc2ccc(N3CCCCC3)cc2-c2cc(C(F)(F)c3cccc(C(F)(F)F)c3)ccn2)c1 [Example 93]	10 to 31.6
O=C(O)CCSCc1cccc(C(=O)Nc2ccc(N3CCCCC3)cc2-c2cc(Oc3cccc(C(F)(F)F)c3)ccn2)c1 [Example 94]	10 to 31.6
C[C@@H]1CN(c2ccc(NC(=O)c3cccc(C(=O)N(C)CCN4CCOCC4)c3)c(-c3cc(C(=O)NCc4cccc(C(F)(F)F)c4)ccn3)c2)C[C@H](C)O1 [Example 95]	10 to 31.6

Other lines, results leading:

IC50 [µM]	SMILES
10 to 31.6	O=C(NCCOCCO)c1cccc(C(=O)Nc2ccc(N3CCCCC3)cc2-c2cc(NCc3cccc(C(F)(F)F)c3)ncn2)c1 [Example 64, N1-(2-(2-Hydroxyethoxy)ethyl)-N3-(4-(piperidin-1-yl)-2-(6-((3-(trifluoromethyl)benzyl)amino)pyrimidin-4-yl)phenyl)isophthalamide]
10 to 31.6	O=C(NCCOCCO)c1cccc(C(=O)Nc2ccc(Cl)cc2-c2cc(NCc3cccc(C(F)(F)F)c3)ncn2)c1 [Example 65, N1-(4-Chloro-2-(6-((3-(trifluoromethyl)benzyl)amino)pyrimidin-4-yl)phenyl)-N3-(2-(2-hydroxyethoxy)ethyl)isophthalamide]
10 to 31.6	O=C(O)CCSCc1cccc(C(=O)Nc2ccc(Cl)cc2-c2cc(NCc3cccc(C(F)(F)F)c3)ncn2)c1 [Example 66, 3-((3-((4-Chloro-2-(6-((3-(trifluoromethyl)benzyl)amino)pyrimidin-4-yl)phenyl)carbamoyl)benzyl)thio)propanoic acid]
1 to 7.94	CC(NC(=O)c1ccnc(-c2cc(N3CCCCC3)ccc2NC(=O)c2cccc(CSCCC(=O)O)c2)c1)c1cccc(C(F)(F)F)c1 (stereo not shown) [Example 77, 3-(3-(4-(piperidin-1-yl)-2-(4-(1-(3-(trifluoromethyl)phenyl)ethylcarbamoyl)pyridin-2-yl)phenylcarbamoyl)benzylthio)propanoic acid]
1 to 7.94	CC(=O)N1CCN(CCN(C)C(=O)c2cccc(C(=O)Nc3ccc(N4CCCCC4)cc3-c3cc(C(=O)NCc4cccc(C(F)(F)F)c4)ccn3)c2)CC1 [Example 81, N1-(2-(4-Acetylpiperazin-1-yl)ethyl)-N1-methyl-N3-(4-(piperidin-1-yl)-2-(4-(3-(trifluoromethyl)benzylcarbamoyl)pyridin-2-yl)phenyl)isophthalamide]
1 to 7.94	CN1CCN(CCN(C)C(=O)c2cccc(C(=O)Nc3ccc(N4CCCCC4)cc3-c3cc(C(=O)NCc4cccc(C(F)(F)F)c4)ccn3)c2)CC1 [Example 82, N1-Methyl-N1-(2-(4-methylpiperazin-1-yl)ethyl)-N3-(4-(piperidin-1-yl)-2-(4-((3-(trifluoromethyl)benzyl)carbamoyl)pyridin-2-yl)phenyl)isophthalamide]
1 to 7.94	CN(CCN1CCN(S(C)(=O)=O)CC1)C(=O)c1cccc(C(=O)Nc2ccc(N3CCCCC3)cc2-c2cc(C(=O)NCc3cccc(C(F)(F)F)c3)ccn2)c1 [Example 83, N1-methyl-N1-(2-(4-(methylsulfonyl)piperazin-1-yl)ethyl)-N3-(4-(piperidin-1-yl)-2-(4-(3-(trifluoromethyl)benzylcarbamoyl)pyridin-2-yl)phenyl)isophthalamide]
1 to 7.94	O=C(O)CCSCc1cccc(C(=O)Nc2ccc(N3CCCCC3)cc2-c2cc(C(=O)Nc3cccc(C(F)(F)F)c3)ccn2)c1 [Example 84]
1 to 7.94	Cc1cc(C(=O)NCc2cccc(C(F)(F)F)c2)cc(-c2cc(N3CCCCC3)ccc2NC(=O)c2cccc(CSCCC(=O)O)c2)n1 [Example 85]
1 to 7.94	O=C(O)CCSCc1cccc(C(=O)Nc2ccc(N3CCCCC3)cc2-c2cc(C(=O)NCc3cccc(C(F)(F)F)c3)cc(Cl)n2)c1 [Example 86]
1 to 7.94	O=C(O)CCSCc1cccc(C(=O)Nc2ccc(N3CCCCC3)cc2-c2cc(C(=O)NCc3cccc(C(F)(F)F)c3)c(F)cn2)c1 [Example 89]
1 to 7.94	CC(C)(CCO)SCc1cccc(C(=O)Nc2ccc(N3CCCCC3)cc2-c2cc(C(=O)NCc3cccc(C(F)(F)F)c3)ccn2)c1 [Example 92]
